Test results published in US10988455B2, “1,2,4-triazine-4-amine derivatives” (Heptares Therapeutics Limited, priority 2010, dated 2021).

Key:
[1] = biological target: human adenosine A1 receptor (Homo sapiens (Human), UniProt P30542); assay: CHO-hA1 [3H]DPCPX binding assay (Test A); conditions: CHO membranes, 1 nM [3H]DPCPX, 25° C., 1 h; for Ki: read-out: pKi A1 (converted)
Procedure: (§1) All test compounds were prepared as a stock solution of 10 mM in 100% DMSO.

[2] = biological target: human adenosine A2a receptor (Homo sapiens (Human), UniProt P29274); assay: HEK293-hA2a [3H]-ZM241385 binding assay (Test A); conditions: HEK293 membranes, 1 nM [3H]ZM241385, 25° C., 1 h
Chain of human adenosine A2a receptor (P29274 whole entry): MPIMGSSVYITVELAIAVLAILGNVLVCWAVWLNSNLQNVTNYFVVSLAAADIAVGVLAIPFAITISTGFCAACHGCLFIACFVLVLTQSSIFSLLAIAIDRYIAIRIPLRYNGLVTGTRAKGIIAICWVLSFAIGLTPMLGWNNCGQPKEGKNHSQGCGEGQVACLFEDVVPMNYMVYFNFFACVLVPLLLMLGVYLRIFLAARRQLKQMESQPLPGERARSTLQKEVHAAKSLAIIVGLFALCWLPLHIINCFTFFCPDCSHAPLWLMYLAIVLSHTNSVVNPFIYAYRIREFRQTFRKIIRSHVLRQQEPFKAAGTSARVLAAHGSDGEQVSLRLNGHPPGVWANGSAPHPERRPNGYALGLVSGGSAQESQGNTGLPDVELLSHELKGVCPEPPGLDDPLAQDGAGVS
Procedure: as §1

[3] = test system: haloperidol-induced catalepsy in rats; assay: Catalepsy reversal test (Test B); type: in vivo, Sprague-Dawley rats; conditions: for reversal of cataleptic behavior in rats pre-treated with haloperidol: dose of 1 mg/kg p.o.
Procedure: The dopamine D2 receptor antagonist, haloperidol, induces Parkinsonism in humans and induces motor effects in rats such as catalepsy. There is considerable evidence that adenosine A2A receptor antagonists reverse haloperidol-induced motor effects in preclinical studies. […] The present study determines the ability of haloperidol-induced catalepsy in rats to be reversed by novel A2A receptor antagonists.
Haloperidol (0.82 mg/kg, i.p.; 150 min pre-test time) induces significant cataleptic behaviour in rats (average score 3.1). The effect of selected compounds of the invention (2-10 mg/kg or 0.3-3 mg/kg, p.o.; 120 min pre-test time) on catalepsy was established by administration of said compounds to rats pre-treated with haloperidol as described above.
Details of a similar test may be found in, for example, Hodgson et al., J. Pharmacol. Exp. Ther. 330, 2009.

Chain of human adenosine A1 receptor (P30542 whole entry): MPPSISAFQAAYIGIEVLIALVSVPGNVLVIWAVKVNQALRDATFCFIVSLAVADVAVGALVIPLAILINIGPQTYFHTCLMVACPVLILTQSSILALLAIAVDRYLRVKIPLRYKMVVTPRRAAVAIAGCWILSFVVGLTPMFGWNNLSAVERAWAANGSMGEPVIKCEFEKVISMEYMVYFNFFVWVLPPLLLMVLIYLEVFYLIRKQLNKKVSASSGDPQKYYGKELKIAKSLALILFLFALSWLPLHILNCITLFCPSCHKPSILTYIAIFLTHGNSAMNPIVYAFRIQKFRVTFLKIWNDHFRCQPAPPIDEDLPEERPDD

SMILES	pKi A1 [1]	pKi A2a [2]	other results
Nc1nnc(-c2cc(Cl)cc(Cl)c2)c(-c2ccccn2)n1 [1(cciv)]	5.97	7.21	–
CN(C)c1cc(-c2nnc(N)nc2-c2ccccc2)ccn1 [1(ccxi)]	8.74	7.71	–
Cc1cc(-c2nnc(N)nc2-c2ccccc2)cc(Br)n1 [1(ccxii)]	7.68	8.66	reversal of cataleptic behavior in rats pre-treated with haloperidol ([3]; 120 min pre-test time): statistically significant
Cc1cc(-c2nnc(N)nc2-c2ccccc2)cc(C)[n+]1[O-] [1(ccxiii)]	7.12	7.51	–
Nc1nnc(-c2cc(Cl)cc(C(F)(F)F)c2)c(-c2ncccn2)n1 [1(ccxviii)]	5.25	6.58	–
Cc1cc(-c2nnc(N)nc2-c2cc(F)cc(F)c2)cc(C)n1 [1(cliv)]	6.77	–	reversal of cataleptic behavior in rats pre-treated with haloperidol ([3]; 120 min pre-test time): statistically significant
Cc1cc(-c2nnc(N)nc2-c2ccc(Cl)cc2)cc(C)n1 [1(clix)]	7.07	7.81	reversal of cataleptic behavior in rats pre-treated with haloperidol ([3]; 120 min pre-test time): statistically significant
Nc1nnc(-c2cc(Cl)nc(C(F)(F)F)c2)c(-c2ccc(F)cc2)n1 [1(clxix)]	6.99	8.40	reversal of cataleptic behavior in rats pre-treated with haloperidol ([3]; 120 min pre-test time): statistically significant
Cc1cc(-c2nnc(N)nc2-c2ccccc2)cc(C(F)F)n1 [1(clxxix)]	7.52	8.62	reversal of cataleptic behavior in rats pre-treated with haloperidol ([3]; 120 min pre-test time): statistically significant
Cc1cc(-c2nnc(N)nc2-c2ccccc2F)cc(Cl)n1 [1(clxxvi)]	6.93	8.03	–
Nc1nnc(-c2cc(Cl)nc(C(F)F)c2)c(-c2ccccc2)n1 [1(clxxx)]	7.76	8.90	–
Nc1nnc(-c2cc(Cl)nc(CF)c2)c(-c2ccccc2)n1 [1(clxxxi)]	7.17	8.71	–
Cc1cc(-c2nnc(N)nc2-c2ccccc2F)cc(C(F)(F)F)n1 [1(cxci)]	7.36	8.26	reversal of cataleptic behavior in rats pre-treated with haloperidol ([3]; 120 min pre-test time): statistically significant
Cc1cc(-c2nnc(N)nc2-c2ccc(F)cc2)cc(C(F)(F)F)n1 [1(cxciii)]	6.93	–	reversal of cataleptic behavior in rats pre-treated with haloperidol ([3]; 120 min pre-test time): statistically significant
Nc1nnc(-c2cnn(Cc3ccccc3)c2)c(-c2ccccc2)n1 [1(cxxxiv)]	7.62	5.62	–
Nc1nnc(-c2cccc(C(F)(F)F)c2)c(-c2ccccc2)n1 [1(ix), 5-Phenyl-6-[3-(trifluoromethyl)phenyl]-1,2,4-triazin-3-amine]	7.81	–	–
Cc1cc(Cl)cc(-c2nnc(N)nc2-c2ccccc2)c1 [1(li)]	6.87	8.66	reversal of cataleptic behavior in rats pre-treated with haloperidol ([3]; 120 min pre-test time): statistically significant

SMILES	pKi A1 [1]	pKi A2a [2]	other results
Cc1cc(-c2nnc(N)nc2-c2ccccc2)cc(Cl)n1 [1(lvi)]	7.33	8.22	reversal of cataleptic behavior in rats pre-treated with haloperidol ([3]; 120 min pre-test time): statistically significant
Nc1nnc(-c2ccc3ccccc3c2)c(-c2ccccc2)n1 [1(lxxii)]	8.52	6.99	–
Nc1nnc(-c2ccnc(C3CC3)c2)c(-c2ccccc2)n1 [1(lxxix)]	9.35	7.45	–
CC1(C)C=C(c2nnc(N)nc2-c2ccccc2)CC(C)(C)O1 [1(lxxx)]	6.01	6.61	–
Cc1cc(-c2nnc(N)nc2-c2cccc(F)c2)cc(Cl)n1 [1(xc)]	7.26	8.07	reversal of cataleptic behavior in rats pre-treated with haloperidol ([3]; 120 min pre-test time): statistically significant
Nc1nnc(-c2cc(Cl)cc(Cl)c2)c(-c2ccccc2)n1 [1(xiii), 6-(3,5-Dichlorophenyl)-5-phenyl-1,2,4-triazin-3-amine]	–	–	reversal of cataleptic behavior in rats pre-treated with haloperidol ([3]; 120 min pre-test time): statistically significant
Cc1cc(-c2nnc(N)nc2-c2ccccc2)cc(C)c1O [1(xli)]	7.83	–	–
Nc1nnc(-c2ccnc(Cl)c2)c(-c2ccccc2)n1 [1(xliii)]	8.54	7.74	ED50, reversal of cataleptic behaviour in rats pre-treated with haloperidol ([3]; p.o., 120 min pre-test time, haloperidol 0.82 mg/kg i.p.): 0.27 mg/kg
Nc1nnc(-c2ccc(F)c(Cl)c2)c(-c2ccccc2)n1 [1(xv), 6-(3-Chloro-4-fluorophenyl)-5-phenyl-1,2,4-triazin-3-amine]	8.45	7.11	–
Nc1nnc(-c2ccc3cc[nH]c3c2)c(-c2ccccc2)n1 [1(xviii), 6-(1H-Indol-6-yl)-5-phenyl-1,2,4-triazin-3-amine]	6.91	6.75	–
COc1cc(OC)cc(-c2nnc(N)nc2-c2ccccc2)c1 [1(xxiv), 6-(3,5-Dimethoxyphenyl)-5-phenyl-1,2,4-triazin-3-amine]	8.03	6.97	–
Nc1nnc(-c2ccc3occc3c2)c(-c2ccccc2)n1 [1(xxxv), 6-(1-benzofuran-5-yl)-5-phenyl-1,2,4-triazin-3-amine]	8.20	7.19	–
CC1CCCN(c2nnc(N)nc2-c2ccccc2)C1 (stereo not drawn) [2(iii), 6-(3-Methylpiperidin-1-yl)-5-phenyl-1,2,4-triazin-3-amine]	5.37	7.31	–
Nc1nnc(-c2cc(Cl)cc(C3CC3)c2)c(-c2ccccc2)n1 [4(ii), 6-(3-Chloro-5-cyclopropylphenyl)-5-phenyl-1,2,4-triazin-3-amine]	–	–	Ki [1]: 37.2 nM; Ki ([2]; read-out: pKi A2a (converted)): 12.9 nM
Nc1nnc(-c2cccc(Cl)c2)c(-c2ccccc2)n1 [Example 1(vi), 6-(3-Chlorophenyl)-5-phenyl-1,2,4-triazin-3-amine]	–	–	ED50 ([3]; Rattus norvegicus, p.o., 120 min pre-test time, haloperidol 0.82 mg/kg i.p., read-out: ED50, reversal of cataleptic behaviour in rats pre-treated with haloperidol): 9.8 mg/kg
Cc1cc(-c2nnc(N)nc2-c2ccc(F)cc2)cc(Cl)n1 [Example 1(xcv), 6-(2-chloro-6-methylpyridin-4-yl)-5-(4-fluorophenyl)-1,2,4-triazin-3-amine]	–	–	reversal of cataleptic behavior in rats pre-treated with haloperidol ([3]; 120 min pre-test time): statistically significant
O=C(CCCN1CCC(O)(c2ccc(Cl)cc2)CC1)c1ccc(F)cc1 [Haloperidol, haloperidol, reference compound]	–	–	catalepsy average score (maximum score of 4) ([3]; haloperidol 0.82 mg/kg i.p., 150 min pre-test time): 3.1

Now from value to compound, other results behind:

pKi A1 [1]	pKi A2a [2]	SMILES	other results
–	7.79	CC1CN(c2nnc(N)nc2-c2ccccc2)CC(C)O1 (stereo not drawn) [2(iv), 6-(2,6-Dimethylmorpholin-4-yl)-5-phenyl-1,2,4-triazin-3-amine]	Ki [1]: > 10000 nM
–	7.39	CC1(C)CCCN(c2nnc(N)nc2-c2ccccc2)C1 [2(vi), 6-(3,3-Dimethylpiperidin-1-yl)-5-phenyl-1,2,4-triazin-3-amine]	Ki [1]: > 10000 nM
6.71	5.07	Cc1csc(Nc2nnc(N)nc2-c2ccccc2)n1 [2(xxii)]	–
7.49	5.53	Nc1nnc(N2CCOC(CO)C2)c(-c2ccccc2)n1 (stereo not drawn) [2(xxv)]	–
–	7.17	Nc1nnc(Oc2ccccc2)c(-c2ccccc2)n1 [3(i), 6-Phenoxy-5-phenyl-1,2,4-triazin-3-amine]	Ki [1]: > 10000 nM
–	5.96	Nc1nnc(Oc2cccc(C(F)(F)F)c2)c(-c2ccccc2)n1 [3(v), 5-Phenyl-6-[3-(trifluoromethyl)phenoxy]-1,2,4-triazin-3-amine]	–
7.15	7.41	Nc1nnc(-n2ccc(=O)cc2)c(-c2ccccc2)n1 [3(xvi)]	–
8.07	6.22	Cc1ncccc1Oc1nnc(N)nc1-c1ccccc1 [3(xxi)]	–
8.46	7.39	Cn1nc(C(F)(F)F)cc1Oc1nnc(N)nc1-c1ccccc1 [3(xxiv)]	–
7.00	5.82	Cc1ccc(Sc2nnc(N)nc2-c2ccccc2)cc1 [3(xxxii)]	–
7.62	7.77	Cc1cn(-c2nnc(N)nc2-c2ccccc2)cc(C)c1=O [5(ix), 1-(3-Amino-5-phenyl-1,2,4-triazin-6-yl)-3,5-dimethylpyridin-4(1H)-one]	–
8.69	6.73	CC(=O)Nc1cc(-c2nnc(N)nc2-c2ccccc2)ccc1O [5(vii), N-[5-(3-Amino-5-phenyl-1,2,4-triazin-6-yl)-2-hydroxyphenyl]acetamide]	–
7.26	–	[2H]C([2H])([2H])c1cc(-c2nnc(N)nc2-c2ccccc2)cc(C)n1 [5(viii), 6-(2-Methyl-6-d3-methylpyridin-4-yl)-5-phenyl-1,2,4-triazin-3-amine]	–
6.90	7.76	Cc1cc(-c2nnc(N)nc2-c2ccc(F)cc2)cc(N2CCC2)n1 [5(xi), 6-[2-(azetidin-1-yl)-6-methylpyridin-4-yl]-5-(4-fluorophenyl)-1,2,4-triazin-3-amine]	–
7.60	–	Cc1cc(-c2nnc(N)nc2-c2ccccc2)cc(C(F)(F)F)n1 [Example 1(ccix), 6-[2-methyl-6-(trifluoromethyl)pyridin-4-yl]-5-phenyl-1,2,4-triazin-3-amine]	reversal of cataleptic behavior in rats pre-treated with haloperidol ([3]; 120 min pre-test time): statistically significant
